# Columns and labels:
# [1] = Fraction unbound in Wistar Han rat skeletal muscle at 2 uM incubated for 6 hrs by equilibrium dialysis method
# [2] = Drug concentration in total skeletal muscle in Wistar Han rat at 1 to 2 mg/kg, iv infused for 10 to 20 hrs by LC-MS/MS analysis; details: in vivo
# [3] = Drug concentration in total white adipose tissue in Wistar Han rat at 1 to 2 mg/kg, iv infused for 10 to 20 hrs by LC-MS/MS analysis; details: in vivo
# [4] = Drug concentration in total brain in Wistar Han rat at 1 to 2 mg/kg, iv infused for 10 to 20 hrs by LC-MS/MS analysis; details: in vivo
# [5] = Drug concentration in total liver in Wistar Han rat at 1 to 2 mg/kg, iv infused for 10 to 20 hrs by LC-MS/MS analysis; details: in vivo
# [6] = Unbound tissue partition coefficient, ratio of drug level in heart to plasma in Wistar Han rat at 1 to 2 mg/kg, iv infused for 10 to 20 hrs by LC-MS/MS analysis; details: heart/plasma
# [7] = Fraction unbound in Wistar Han rat white adipose tissue at 2 uM incubated for 6 hrs by equilibrium dialysis method
# [8] = Total plasma concentration in Wistar Han rat at 1 to 2 mg/kg, iv infused for 10 to 20 hrs by LC-MS/MS analysis; details: in vivo
# [9] = Fraction unbound in Wistar Han rat heart at 2 uM incubated for 6 hrs by equilibrium dialysis method
# [10] = Unbound tissue partition coefficient, ratio of drug level in liver to plasma in Wistar Han rat at 1 to 2 mg/kg, iv infused for 10 to 20 hrs by LC-MS/MS analysis; details: liver/plasma
# [11] = Apparent permeability of the compound across dog RRCK cells by MDCK-LE assay
# [12] = Drug concentration in total heart in Wistar Han rat at 1 to 2 mg/kg, iv infused for 10 to 20 hrs by LC-MS/MS analysis; details: in vivo
# [13] = Fraction unbound in Wistar Han rat liver at 2 uM incubated for 6 hrs by equilibrium dialysis method
# [14] = Fraction unbound in Wistar Han rat plasma at 2 uM incubated for 6 hrs by equilibrium dialysis method
# [15] = Unbound tissue partition coefficient, ratio of drug level in skeletal muscle to plasma in Wistar Han rat at 1 to 2 mg/kg, iv infused for 10 to 20 hrs by LC-MS/MS analysis; details: skeletal muscle/plasma
# [16] = Unbound tissue partition coefficient, ratio of drug level in brain to plasma in Wistar Han rat at 1 to 2 mg/kg, iv infused for 10 to 20 hrs by LC-MS/MS analysis; details: brain/plasma
# [17] = Fraction unbound in Wistar Han rat brain at 2 uM incubated for 6 hrs by equilibrium dialysis method
# [18] = Unbound tissue partition coefficient, ratio of drug level in adipose to plasma in Wistar Han rat at 1 to 2 mg/kg, iv infused for 10 to 20 hrs by LC-MS/MS analysis; details: adipose/plasma
compound,measurement,setting,value
Oc1noc2cc(Cl)c(Cl)cc12,"fraction unbound at 6 h, 2 µM",[1],0.153
same,Ct,[2],17 ng/mL
same,Ct,[3],29 ng/mL
same,Ct,[4],24 ng/mL
same,Ct,[5],4.7 ng/mL
same,Kp uu,[6],10
same,"fraction unbound at 6 h, 2 µM",[7],0.714
same,Cp,[8],500 ng/mL
same,"fraction unbound at 6 h, 2 µM",[9],0.13
same,Kp uu,[10],0.22
same,Papp,[11],29 ×10⁻⁶ cm/s
same,Ct,[12],180 ng/mL
same,"fraction unbound at 6 h, 2 µM",[13],0.105
same,"fraction unbound at 6 h, 2 µM",[14],0.00445
same,Kp uu,[15],1.2
same,Kp uu,[16],1.1
same,"fraction unbound at 6 h, 2 µM",[17],0.103
same,Kp uu,[18],9.7
C[C@H](c1nc2cnc(N3CCC[C@@H](C(=O)N4CCCC4)C3)nc2[nH]1)n1cc(Cl)cn1,"fraction unbound at 6 h, 2 µM",[1],0.0901
same,Ct,[2],56 ng/mL
same,Ct,[3],39 ng/mL
same,Ct,[4],1.8 ng/mL
same,Ct,[5],240 ng/mL
same,Kp uu,[6],1.5
same,"fraction unbound at 6 h, 2 µM",[7],0.256
same,Cp,[8],50 ng/mL
same,"fraction unbound at 6 h, 2 µM",[9],0.121
same,Kp uu,[10],2.8
same,Papp,[11],24 ×10⁻⁶ cm/s
same,Ct,[12],120 ng/mL
same,"fraction unbound at 6 h, 2 µM",[13],0.111
same,"fraction unbound at 6 h, 2 µM",[14],0.186
same,Kp uu,[15],0.54
same,Kp uu,[16],0.013
same,"fraction unbound at 6 h, 2 µM",[17],0.155
same,Kp uu,[18],1.1
Cn1ncc(-c2ccc(C(=O)N(c3ncccc3Cl)[C@@H]3CCCNC3)cc2)c1C(=O)O,"fraction unbound at 6 h, 2 µM",[1],0.595
same,Ct,[2],7.4 ng/mL
same,Ct,[3],5.4 ng/mL
same,Ct,[4],6.8 ng/mL
same,Ct,[5],630 ng/mL
same,Kp uu,[6],5.3
same,"fraction unbound at 6 h, 2 µM",[7],0.736
same,Cp,[8],55 ng/mL
same,"fraction unbound at 6 h, 2 µM",[9],1
same,Kp uu,[10],5
same,Papp,[11],0.51 ×10⁻⁶ cm/s
same,Ct,[12],210 ng/mL
same,"fraction unbound at 6 h, 2 µM",[13],0.287
same,"fraction unbound at 6 h, 2 µM",[14],0.692
same,Kp uu,[15],0.1
same,Kp uu,[16],0.16
same,"fraction unbound at 6 h, 2 µM",[17],1
same,Kp uu,[18],0.21
CC(C)C[C@H](Nc1ccc(C(=O)NCCC(=O)O)cn1)c1ccc(-c2ccc(C(F)(F)F)cn2)cc1,"fraction unbound at 6 h, 2 µM",[1],0.011
same,Ct,[2],0.8 ng/mL
same,Ct,[3],0.77 ng/mL
same,Ct,[4],0.95 ng/mL
same,Ct,[5],1000 ng/mL
same,Kp uu,[6],0.57
same,"fraction unbound at 6 h, 2 µM",[7],0.119
same,Cp,[8],45 ng/mL
same,"fraction unbound at 6 h, 2 µM",[9],0.00934
same,Kp uu,[10],12
same,Papp,[11],0.1 ×10⁻⁶ cm/s
same,Ct,[12],45 ng/mL
same,"fraction unbound at 6 h, 2 µM",[13],0.00684
same,"fraction unbound at 6 h, 2 µM",[14],0.0141
same,Kp uu,[15],0.02
same,Kp uu,[16],0.0042
same,"fraction unbound at 6 h, 2 µM",[17],0.00795
same,Kp uu,[18],0.024
CO[C@@H]1C[C@H](C(=O)Nc2ccc(-n3cc(Cl)ccc3=O)cc2F)N(C(=O)Nc2ccc(Cl)cc2)C1,"fraction unbound at 6 h, 2 µM",[1],0.0842
same,Ct,[2],180 ng/mL
same,Ct,[3],300 ng/mL
same,Ct,[4],10 ng/mL
same,Ct,[5],600 ng/mL
same,Kp uu,[6],11
same,"fraction unbound at 6 h, 2 µM",[7],0.177
same,Cp,[8],120 ng/mL
same,"fraction unbound at 6 h, 2 µM",[9],0.0772
same,Kp uu,[10],8.6
same,Papp,[11],21 ×10⁻⁶ cm/s
same,Ct,[12],960 ng/mL
same,"fraction unbound at 6 h, 2 µM",[13],0.0949
same,"fraction unbound at 6 h, 2 µM",[14],0.0543
same,Kp uu,[15],2.4
same,Kp uu,[16],0.064
same,"fraction unbound at 6 h, 2 µM",[17],0.0391
same,Kp uu,[18],7.9
Cc1ccc(NC(=O)N2CCN(Cc3sc4ccccc4c3C)CC2)nc1,"fraction unbound at 6 h, 2 µM",[1],0.0067
same,Ct,[2],37 ng/mL
same,Ct,[3],240 ng/mL
same,Ct,[4],91 ng/mL
same,Ct,[5],630 ng/mL
same,Kp uu,[6],1.9
same,"fraction unbound at 6 h, 2 µM",[7],0.00709
same,Cp,[8],92 ng/mL
same,"fraction unbound at 6 h, 2 µM",[9],0.00576
same,Kp uu,[10],31
same,Papp,[11],25 ×10⁻⁶ cm/s
same,Ct,[12],130 ng/mL
same,"fraction unbound at 6 h, 2 µM",[13],0.0191
same,"fraction unbound at 6 h, 2 µM",[14],0.0044
same,Kp uu,[15],0.65
same,Kp uu,[16],2.5
same,"fraction unbound at 6 h, 2 µM",[17],0.0099
same,Kp uu,[18],4.8
